According to article PMC6466596, “New Chloramphenicol Derivatives from the Viewpoint of Anticancer and Antimicrobial Activity” (Antibiotics, 2019):
Read-outs that look alike come from different tables or passages of the source.

How the values were obtained:
Escherichia coli K12 = test: In vivo antibacterial activity (growth inhibition in LB culture, OD560); assay type: cell-based; details: K12, read-out: EC50 Escherichia coli K12
Method: (§1) The in vivo antibacterial activity of the conjugates was determined using the following three bacterial strains: wild-type Escherichia coli K12 (E. coli K12), Escherichia coli ΔTolC mutant strain (E. coli ΔTolC) lacking the TolC protein, which is involved in the efflux pumps operation, and wild-type Staphylococcus aureus (S. aureus). The anti-tumor activity of the conjugates was assessed using the human ZL34 and MeT5A cell lines, which were kindly offered by Professor G. Stathopoulos (University of Patras). ZL34 are cancer cells, derived from malignant pleural mesothelioma, while MeT5A are immortalized cells, which originate from healthy mesothelial tissue.
(§2) For the experimental procedures, the bacteria were cultured in luria broth (LB) medium (tryptone 10 g/L, yeast extract 5 g/L, NaCl 10 g/L) as previously described. The bacteria cultures were grown in the presence of CAM or each conjugate at increasing concentration (1–100 μM). The cultures were incubated at 37 °C until the absorbance (OD560) of the reference culture in the absence of antibiotic reached the value of 0.7. At this point, the growth of the cultures was terminated by placing them in an ice bath, and the measurement of the optical density followed. These measurements were used to calculate the half-maximal effective concentration (EC50) values.

Staphylococcus aureus = test: as above; assay type: cell-based; details: read-out: EC50 Staphylococcus aureus
Method: as §1, §2

Escherichia coli ΔTolC = test: as above; assay type: cell-based; details: read-out: EC50 Escherichia coli ΔTolC
Method: as §1, §2

E. coli 70S ribosome = test: Competition with [14C]-chloramphenicol for binding to the ribosome (filter binding); details: calculated from IC50 by Cheng–Prusoff; [14C]-CAM constant at 10 μM; read-out: Ki (binding affinity constant)
Method: Reassociated 70S ribosomes were prepared from E. coli K12 cells as described previously. 70S ribosomes were incubated in buffer A (100 mM Tris-HCl pH 7.2, 100 mM ammonium acetate, 10 mM magnesium acetate, 6 mM β-mercaptoethanol) with 10 μΜ [^14C]-chloramphenicol (150 dpm/pmol) at a final concentration of 0.20 μM [23]. After incubation for 10 min at 37 °C, the mixture was diluted with 3 mL of cold buffer A and filtered through a 25-mm diameter cellulose nitrate membrane filter (Millipore 0.45 μm pore size). The filter was washed three times with 3 mL of cold buffer A and the radioactivity which remained bound on the filter was measured. The binding of [^14C]-chloramphenicol was studied in competition with CAM or PA–CAM conjugates by keeping the concentration of [^14C]-CAM constant (10 μM) and increasing the concentration of non-radioactive conjugates.
To clarify whether the new PA–CAM conjugates maintain their binding site on the 70S bacterial ribosome, we carried out competition experiments. […] The affinity constants, Ki, were calculated using the following Cheng–Prusoff relationship (1) and their values are presented in Table 3. According to the values of Table 3, the decrease of the affinity for 70S ribosome follows the order 3>7>4>6>CAM>5. (1) Ki=IC50/1+[I]/KD where [I] is the concentration of [^14C]-CAM (constant at 10 μM) and KD is the dissociation constant of ribosome–chloramphenicol complex formation.

[1] = system: mitochondrial cytochrome c oxidase subunit II (COX2) in Met5A cells; test: Immunoblotting of COX2 (mitochondrial protein synthesis); assay type: cell-based, human; details: 60 μΜ, 48 h; compared to ZL34; result in words
Method: (§3) Cell lysates were prepared after treatment with 60 μΜ of conjugates for 48 h. Total cellular proteins were isolated at 4 °C using RIPA buffer (ABCAM) and mixed with 4% SDS-containing loading buffer. Protein concentrations were determined using Bradford assay. Lysates ([…]) were reduced in Laemmli buffer containing 1 mM dithiothreitol, resolved by 10% SDS-PAGE and electrotransfered to Immobilon-P PVDF membranes (Millipore, Massachusetts, USA) according to standard procedures. Blots were incubated at 4 °C overnight with rabbit monoclonal antibody against mitochondrial cytochrome c oxidase subunit II (COX2) (anti-mtCO2 antibody, ABCAM) at a 1:1000 dilution in blocking buffer. After washing with TBS-Tween and incubation with secondary antibody coupled to horse radish peroxidase, protein bands were visualized with ECL^TM chemiluminescence reagent (Amersham) and detected by autoradiography. The intensity of bands was quantified by Image Analysis, using the Image-Pro Plus 7 software (Media Cybernetics). Blots were re-probed with a mouse anti-actin antibody (Santa Cruz Biotechnology) to verify equal protein loading.

[2] = system: mitochondrial cytochrome c oxidase subunit II (COX2) in ZL34 cells; test: as above; assay type: cell-based, human; details: 60 μΜ, 48 h; normalized to actin; result in words
Method: as §3

ZL34 cells = test: Quantification of intracellular levels of conjugates and polyamines by RP-HPLC-DAD; assay type: cell-based, human; details: ZL34 cells treated with 60 μΜ of compound; for Intracellular compound concentration: mean ± SD, three repetitions
Method: (§4) PAs and conjugates 3 and 4 in ZL34 and Met5A cells were determined by reverse phase high-performance liquid chromatography (RP-HPLC-DAD), as described previously. Briefly, 100 mg cells (wet weight), either ZL34 or Met5A, which were grown in the presence of 60 μΜ of conjugates, were washed and then homogenized in 0.6 M HClO4. Cultures grown in the absence of the conjugates were used as reference. In the isolates, hexamethylenediamine dihydrochloride was added as an internal standard, followed by dansylation and subsequent extraction by toluene. The extracts were dried, reconstituted in acetonitrile/10 mM phosphate buffer pH 4.4 (45:55 v/v) and filtered through a 0.2-μm membrane (Spartan 13/0.2 RC Whatman GmbH, Dassel, Germany) prior to HPLC analysis. The HPLC system included a Varian Star 9010 solvent delivery system with a 250 × 4.6 mm Luna 5 μm C18(2) 100 A column (Phenomenex Co., USA) and a photodiode array detector (Shimadzu SPDM20A).
(§5) The flow rate was set at 1.0 mL/min. Polyamines were quantified at 258 nm and the conjugates at 275 nm. The detection limits for PUT, SPD, and SPM were 52 pmol, 18 pmol, and 36 pmol at 258 nm, respectively. The detection limits for compounds 3 and 4 were 25 pmol and 30 pmol at 275 nm, respectively. All experiments were run in triplicate. The coefficients of variation (C.V.) of the intra-assays were 5–7%, while those of the inter-assays ranged from 13 to 17%. LC Solution Software (Shimadzu) was used for data processing and the results were expressed as nmol/mg protein.

Met5A cells = test: as above; assay type: cell-based, human; details: Met5A cells treated with 60 μΜ of compound; for Intracellular compound concentration: mean ± SD, three repetitions
Method: as §4, §5

ZL34 mesothelioma cells = assay type: cell-based, human
Method: as §1
(§6) The antitumor activity of the conjugates was assessed using the human ZL34 and MeT5A cell lines as previously described. ZL34 and Met5A cells were plated in sterile 6-well microtiter plates and grown in Dulbecco’s modified Eagle’s medium (DMEM), supplemented with 10% heat-inactivated fetal bovine serum and 1% penicillin/streptomycin. Cultures were maintained in a humidified atmosphere with 5% CO2 at 37 °C. Compounds 3 and 4 were added at final concentrations of 30 and 60 μΜ, and then cells were grown for 24, 72 and 96 h. In parallel, solutions of conjugates combined with a ten-fold concentration of SPD were incubated under the same conditions. After treatment, the drug was removed by washing the cells twice with phosphate-buffered saline (PBS). The cells were then trypsinized (0.5 mL trypsin-EDTA×1 solution/well, 5 min at 37 °C), mixed with 1 mL DMEM and collected by centrifugation at 3000 × g for 5 min. Cell viabilities were determined by the trypan blue exclusion assay, using a TC10 automated cell counter (BIORAD). Viable cells were expressed as a percentage of total cells.

[3] = system: Met5A mesothelial immortalized cells; assay type: cell-based, human
Method: as §1, §6

[4] = wild-type strain, mean ± SD, three independent experiments

Row | SMILES | EC50 (Escherichia coli K12) [µM] | EC50 (Staphylococcus aureus) [µM] | EC50 (Escherichia coli ΔTolC) [µM] | Ki (E. coli 70S ribosome) [nM] | COX2 levels in Met5A cells [1] | COX2 expression in tumor cells (ZL34) [2] | PUT intracellular level (ZL34 cells) [nmol/mg Protein] | SPD intracellular level (ZL34 cells) | SPM intracellular level (ZL34 cells) | Intracellular compound concentration (ZL34 cells) [μΜ] | PUT intracellular level (Met5A cells) [nmol/mg Protein] | SPD intracellular level (Met5A cells) [nmol/mg Protein] | SPM intracellular level (Met5A cells) [nmol/mg Protein] | Intracellular compound concentration (Met5A cells) [μΜ] | EC50 (Staphylococcus aureus; [4]) [µM] | Cytotoxicity / antiproliferative activity on ZL34 cancer cells (ZL34 mesothelioma cells) | Cytotoxicity on immortalized Met5A cells [3]
1 | O=C(N[C@H](CO)[C@H](O)c1ccc([N+](=O)[O-])cc1)C(Cl)Cl [CAM, Chloramphenicol] | 6.2 ± 0.5 | 3.4 ± 0.3 | 2.3 ± 0.6 | 1500 ± 100 |  |  |  |  |  |  |  |  |  |  |  |  | 
2 | NCCCN(CCCCN(Cc1ccccc1)Cc1ccccc1)C(=O)CCC(=O)N[C@H](CO)[C@H](O)c1ccc([N+](=O)[O-])cc1 [Compound 3] | 11 ± 0.9 |  | 8.9 ± 0.7 | 800 ± 100 | affected to a lesser extent | significant decrease | 1.58 ± 0.13 | 4.18 ± 1.87 ^1 nmol/mg Protein | 2.71 ± 1.17 ^2 nmol/mg Protein | 5.96 ± 0.92 | 7.38 ± 1.93 | 7.38 ± 1.85 | 22.50 ± 3.11 | 3.75 ± 0.60 | 6.8 ± 0.5 |  | 
3 | O=C(CCC(=O)N(CCCCN(Cc1ccccc1)Cc1ccccc1)CCCN(Cc1ccccc1)Cc1ccccc1)N[C@H](CO)[C@H](O)c1ccc([N+](=O)[O-])cc1 [Compound 4] | > 200 |  | > 200 | 1100 ± 100 | affected to a lesser extent | significant decrease | 2.07 ± 0.91 | 5.36 ± 2.15 ^1 nmol/mg Protein | 3.17 ± 1.70 ^2 nmol/mg Protein | 29.00 ± 2.53 | 5.60 ± 1.10 | 8.14 ± 2.16 | 25.80 ± 6.57 | 7.40 ± 0.80 | > 200 | demonstrated cytotoxicity | milder action
4 | O=C(CCC(=O)N[C@H](CO)[C@H](O)c1ccc([N+](=O)[O-])cc1)NCCCCN(Cc1ccccc1)Cc1ccccc1 [Compound 5] | > 200 |  | > 200 | 2600 ± 300 |  |  |  |  |  |  |  |  |  |  | > 200 | did not show any important antiproliferative activity | 
5 | O=C(CCC(=O)N[C@H](CO)[C@H](O)c1ccc([N+](=O)[O-])cc1)NCCCCCCN(Cc1ccccc1)Cc1ccccc1 [Compound 6] | > 200 |  | > 200 | 1300 ± 200 |  |  |  |  |  |  |  |  |  |  | > 200 | did not show any important antiproliferative activity | 
6 | O=C(CCC(=O)N[C@H](CO)[C@H](O)c1ccc([N+](=O)[O-])cc1)NCCCN(Cc1ccccc1)Cc1ccccc1 [Compound 7] | > 200 |  | > 200 | 1000 ± 100 |  |  |  |  |  |  |  |  |  |  | > 200 | did not show any important antiproliferative activity | 
